{"source": "paper PMC3724850", "about": "“A Scallop Nitric Oxide Synthase (NOS) with Structure Similar to Neuronal NOS and Its Involvement in the Immune Defense” (PLoS ONE, 2013)", "target": "T1, CfNOS (native) (Azumapecten farreri, UniProt S4UD24)", "T1 construct": "gene NOS; immunoprecipitated from scallop haemocyte lysate with rat polyclonal antibody to rCfNOS, Protein G column", "T1 sequence (S4UD24 1-1486)": "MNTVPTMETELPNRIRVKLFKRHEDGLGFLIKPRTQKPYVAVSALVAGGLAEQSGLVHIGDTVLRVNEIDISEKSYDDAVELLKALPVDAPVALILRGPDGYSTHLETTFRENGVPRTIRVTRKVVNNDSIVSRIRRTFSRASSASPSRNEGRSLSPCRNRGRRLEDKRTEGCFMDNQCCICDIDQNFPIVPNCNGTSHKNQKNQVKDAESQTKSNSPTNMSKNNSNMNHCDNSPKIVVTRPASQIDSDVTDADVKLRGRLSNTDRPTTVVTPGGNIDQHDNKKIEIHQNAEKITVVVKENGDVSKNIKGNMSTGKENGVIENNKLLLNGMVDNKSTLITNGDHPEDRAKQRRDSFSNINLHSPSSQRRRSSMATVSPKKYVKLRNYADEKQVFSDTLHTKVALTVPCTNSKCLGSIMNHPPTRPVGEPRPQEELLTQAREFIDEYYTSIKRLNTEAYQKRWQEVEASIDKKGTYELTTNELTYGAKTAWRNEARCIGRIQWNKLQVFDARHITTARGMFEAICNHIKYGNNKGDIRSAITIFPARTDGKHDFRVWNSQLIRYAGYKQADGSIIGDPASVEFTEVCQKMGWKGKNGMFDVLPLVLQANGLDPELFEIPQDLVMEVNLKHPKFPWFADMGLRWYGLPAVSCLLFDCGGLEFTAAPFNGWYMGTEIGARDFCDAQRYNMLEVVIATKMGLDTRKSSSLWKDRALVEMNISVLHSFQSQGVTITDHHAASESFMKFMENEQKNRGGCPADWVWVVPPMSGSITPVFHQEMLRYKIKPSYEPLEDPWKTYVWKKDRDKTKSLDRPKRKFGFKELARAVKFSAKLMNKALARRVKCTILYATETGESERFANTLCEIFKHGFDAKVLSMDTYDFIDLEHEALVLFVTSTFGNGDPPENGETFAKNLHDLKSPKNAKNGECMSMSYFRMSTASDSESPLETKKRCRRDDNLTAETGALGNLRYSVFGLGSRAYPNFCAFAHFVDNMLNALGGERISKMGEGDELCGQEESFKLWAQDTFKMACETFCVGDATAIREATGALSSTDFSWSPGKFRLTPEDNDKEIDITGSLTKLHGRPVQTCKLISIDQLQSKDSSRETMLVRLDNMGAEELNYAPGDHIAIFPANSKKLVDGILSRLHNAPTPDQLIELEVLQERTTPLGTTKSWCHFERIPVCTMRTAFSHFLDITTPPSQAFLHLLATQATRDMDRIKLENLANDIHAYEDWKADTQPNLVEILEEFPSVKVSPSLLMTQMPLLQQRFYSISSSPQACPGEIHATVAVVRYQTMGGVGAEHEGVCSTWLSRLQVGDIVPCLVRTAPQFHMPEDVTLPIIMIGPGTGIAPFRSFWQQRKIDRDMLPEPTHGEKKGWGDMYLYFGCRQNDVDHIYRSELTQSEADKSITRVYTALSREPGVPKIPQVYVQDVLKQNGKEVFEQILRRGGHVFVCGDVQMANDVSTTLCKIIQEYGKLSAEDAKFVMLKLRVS", "assay": "NOS activity by total NOS detection kit (absorbance […] nm)", "type": "biochemical", "conditions": "no inhibitor; immunoprecipitated native enzyme"}
{"smiles": "N=C(N)NCCC[C@H](N)C(=O)O", "note": "[L-Arginine]", "values": [{"measurement": "NOS activity by total NOS detection kit (absorbance 530 nm)", "value": "measuring the NO production using L-Arginine as the substrate"}]}
